Values quoted from earlier work in patent US9770413B2, “Amphiphilic dendron-coils, micelles thereof and uses” (THE BOARD OF TRUSTEES OF THE UNIVERSITY OF ILLINOIS, priority 2011, dated 2017).

Target: folate receptors (FR)

Kd: ~0.1 nM
SMILES: Nc1nc2ncc(CNc3ccc(C(=O)N[C@@H](CCC(=O)O)C(=O)O)cc3)nc2c(=O)[nH]1 [FA, folic acid]
